A short description of data set [1]: Accelerated stability, 4 hrs at 80° C., total impurities. The settings on record: after 4 hours at 80° C.
Protocol: As part of the analysis of impurity growth, the impact on impurity level of various excipients useful for tablet preparation was examined by blending the DPI with various excipients and heating for 4 hours at 80° C.
A short description of data set [2]: Particle size analysis (Malvern Mastersizer 3000), Example 4. It counts as physicochemical. The settings on record: volume statistics, in 0.1% PVP. The method, then:
This cycle was continued until the total sonication time reached one minute. […] The sample was then allowed to stir for 5 minutes prior to taking measurements. Data from the final measurements are presented in Table 1 and depicted graphically in FIG. 3. For comparison, the particle size distribution of unmilled abiraterone acetate (raw drug substance) was also determined. […] The sample was then allowed to stir for 5 minutes prior to taking measurements. The data from these measurements are presented in Table 1 and depicted graphically in FIG. 3. […] No fine particle abiraterone acetate was measured in the unmilled drug sample. [table]

Data set [3] can be described thus: Particle size distribution by light scattering (Malvern Mastersizer 2000), Example 1. The class given is physicochemical. As to conditions: volume statistics. The source says: Abiraterone acetate drug substance was obtained from Hangzhao Dayangchem Co., Ltd.; Hangzhao City, P.R. China.
Data set [4] is described as follows: Comparative capsule dissolution, 10 mmol phosphate buffer pH 6 with 0.1% SDS, Example 2. The class given is physicochemical. As to conditions: pH 6 phosphate buffer, 37° C. The procedure: Also, 250 mg of unmilled abiraterone acetate was hand filled into similar capsules. Dissolution profiles were measured in triplicate using a Varian VK7025 dissolution apparatus fitted with (6) 1000 mL vessels, with detection performed in a Varian UV-Vis Spectrophotometer at 270 nm. Each vessel contained 900 mL dissolution media consisting of 10 mmol phosphate buffer at pH 6 with 0.1% SDS added. Experiments were conducted at 37° C. The hard gelatin capsules were fitted inside spiral sinkers before commencing the dissolution experiments.

Here are results for three molecules from patent publication US20160067265A1, “Abiraterone Acetate Formulation” (ICEUTICA INC., priority 2013, published 2016).

Consider `CC(=O)O[C@H]1CC[C@@]2(C)C(=CC[C@@H]3[C@@H]2CC[C@]2(C)C(c4cccnc4)=CC[C@@H]32)C1` [API prior to size reduction, Abiraterone acetate], for which the degradation result in data set [1] is listed as “essentially no degradation”.
Regarding `CC(=O)O[C@H]1CC[C@@]2(C)C(=CC[C@@H]3[C@@H]2CC[C@]2(C)C(c4cccnc4)=CC[C@@H]32)C1` [Unmilled, Abiraterone acetate], in data set [2], the “D4,3” value is listed as 28.1 μm, the D10 came to 8.18 μm, the D50 worked out at 21.8 μm and the D90 stood at 47.3 μm.
As to `CC(=O)O[C@H]1CC[C@@]2(C)C(=CC[C@@H]3[C@@H]2CC[C@]2(C)C(c4cccnc4)=CC[C@@H]32)C1` [unmilled abiraterone acetate, Abiraterone acetate], in data set [3], the D10 came to 16 μm, the D50 is given as 37 μm, the D90 was 70 μm and the average particle size entry is on record as “approximately 40 μm”. The “% dissolved after one hour” value in data set [4] is “approximately 10%”.
